# Measured values taken from patent US4877727A, “Substrate for determining leucine aminopeptidase or gamma-glutamyltranspeptase activity” (Kyowa Medex Co., Ltd., priority 1984, dated 1989).
# Key:
# Solubility of substrate = assay type: physicochemical; details: read-out: S: Solubility
# Stability of pigment = assay type: physicochemical
# [1] = Maximum wavelength of formed pigment; assay type: physicochemical
# Description: 50 μl of 1 mM each free compound was added to 3 ml of 0.1M phosphate buffer containing 0.5 mg/ml EMSE and 1 U/ml laccase and the mixture was incubated at 37° C. for 5 minutes. The absorption of the reaction solution at λmax was measured. As a control, 5-aminosalicylic acid was used and the reaction of the compound with 2,6-xylenol was carried out in the presence of metaperiodate under strong alkaline conditions.
# [2] = target: T1, γ-glutamyltranspeptidase (γ-GTP) (Homo sapiens, UniProt P19440); test: γ-GTP determination in serum (Example 3); assay type: biochemical; details: found with the compound as substrate; standard serum 235 mU/ml; 37° C., 5 minutes; wavelength of Table 2
# T1 construct: from tissue; host or cells: serum
# Description: In this example, 500 mg of compound Nos. 1, 3, 5, 7 and 9 each and 500 mg of glycylglycine were dissolved in 100 ml (pH=7.7) and 0.1M phosphate buffer. The resultant solutions were designated A-1, A-3, A-5, A-7 and A-9, respectively. 50 mg of 3-{N-(m-tolyl)-N-ethyl}amino-2-hydroxypropane sulfonic acid was dissolved in 100 ml of phosphate buffer solution to obtain solution B. 50 mg/ml sodium meta-periodate containing 1N-HCl solution was prepared as solution C.
# 6 ml of solution A-1, A-3, A-5, A-7 or A-9 was equally poured to 3 test tubes. The samples were incubated at 37° C. and to the solution was added […] of (a) serum sample (b) standard serum or (c) water. The mixtures were stirred and heated for 5 minutes. After 5 minutes had passed, 1 ml of solution B and 1 ml of solution C were added to each of the mixtures and the mixtures were incubated for 10 minutes after stirring. As the standard serum, a serum having 235 mU/ml of γ-GTP was used.
# The γ-GTP activity of the serum sample can be calculated by the following equation. [formula]
# T1 sequence (P19440 1-380 limits assumed): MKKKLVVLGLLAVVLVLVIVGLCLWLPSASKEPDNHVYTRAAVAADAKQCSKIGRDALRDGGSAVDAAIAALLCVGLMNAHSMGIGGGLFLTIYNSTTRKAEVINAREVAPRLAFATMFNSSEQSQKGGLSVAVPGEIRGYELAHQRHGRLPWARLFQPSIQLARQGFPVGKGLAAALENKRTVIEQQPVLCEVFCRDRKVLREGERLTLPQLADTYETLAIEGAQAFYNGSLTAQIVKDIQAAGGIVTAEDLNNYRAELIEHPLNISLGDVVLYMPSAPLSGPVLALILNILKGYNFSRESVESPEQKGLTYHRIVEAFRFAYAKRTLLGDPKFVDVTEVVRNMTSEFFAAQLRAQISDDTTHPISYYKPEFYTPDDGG
# T1 sequence (P19440 381-569 limits assumed): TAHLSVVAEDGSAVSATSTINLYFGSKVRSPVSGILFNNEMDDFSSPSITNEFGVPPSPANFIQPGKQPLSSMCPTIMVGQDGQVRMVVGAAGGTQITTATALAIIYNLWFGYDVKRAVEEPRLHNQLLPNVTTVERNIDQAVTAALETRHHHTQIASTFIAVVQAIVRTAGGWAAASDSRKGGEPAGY
Compound,solubility (Solubility of substrate) [mg/mL],ST: Stability of pigment (Stability of pigment) [%],λmax: Maximum wavelength [1] [nm],γ-GTP activity of the serum sample [2] [mU/ml]
CCN(CC(O)CS(=O)(=O)O)c1ccc(NC(=O)CC[C@H](N)C(=O)O)cc1 (stereo partly shown) [compound 5],170,> 98,740,236
CCN(CC(O)CS(=O)(=O)O)c1ccc(NC(=O)[C@@H](N)CC(C)C)cc1 (stereo partly shown) [compound 6],90,> 98,740,
CC(C)C[C@H](N)C(=O)Nc1ccc(N(CCCS(=O)(=O)O)CCCS(=O)(=O)O)c(S(=O)(=O)O)c1 [compound 8],> 200,93,680,
CC(C)C[C@H](N)C(=O)Nc1ccc(N(CCS(=O)(=O)O)CCS(=O)(=O)O)c(C#N)c1 [compound 11],> 200,95,640,
Cc1cc(NC(=O)[C@@H](N)CC(C)C)ccc1N(CCS(=O)(=O)O)CCS(=O)(=O)O [compound 12],> 200,> 98,715,

# Second part, the compound after the results:
solubility (Solubility of substrate) [mg/mL],ST: Stability of pigment (Stability of pigment) [%],λmax: Maximum wavelength [1] [nm],γ-GTP activity of the serum sample [2] [mU/ml],Compound
125,> 98,685,,CC(C)C[C@H](N)C(=O)Nc1ccc(N(CCCS(=O)(=O)O)CCCS(=O)(=O)O)c(Cl)c1 [compound 10]
> 200,> 98,705,,COC(=O)c1cc(NC(=O)[C@@H](N)CC(C)C)ccc1N(CCCCS(=O)(=O)O)CCCCS(=O)(=O)O [compound 13]
> 200,> 98,720,,COc1cc(N(CCCCS(=O)(=O)O)CCCCS(=O)(=O)O)c(C)cc1NC(=O)[C@@H](N)CC(C)C [compound 14]
